According to ChEMBL document CHEMBL4184158, “Azolylthioacetamides as a potent scaffold for the development of metallo-β-lactamase inhibitors” (Bioorg Med Chem Lett, 2017):
Calls of active or inactive are those of the source. No cut-off for these calls is given here.

Key:
Bacteria [1] = assay: Inhibition of bacterial NDM1 expressed in Escherichia coli BL21 (DE3) transformed cells assessed as potentiation of imipenem-induced antibacterial activity by measuring imipenem MIC after 20 hrs by broth microdilution assay (reference value: 16 ug/ml)
Bacteria [2] = assay: Inhibition of bacterial ImiS expressed in Escherichia coli BL21 (DE3) transformed cells assessed as potentiation of imipenem-induced antibacterial activity by measuring imipenem MIC after 20 hrs by broth microdilution assay (reference value: 1 ug/ml)
Escherichia coli = assay: Antibacterial activity against Escherichia coli BL21(DE3) at 16 ug/ml after 20 hrs by broth microdilution assay; type: functional, organism-based
Bacteria [3] = assay: Inhibition of bacterial ImiS expressed in Escherichia coli BL21 (DE3) transformed cells at 500 uM using imipenem as substrate by UV spectrometry
[4] = Inhibition of bacterial NDM1 expressed in Escherichia coli DH5R transformed cells using imipenem as substrate by UV spectrometry; design: species or system Bacteria
Bacteria [5] = assay: Inhibition of bacterial metallo-beta-lactamase L1 expressed in Escherichia coli […] cells at 500 uM using imipenem as substrate by UV spectrometry
Bacteria [6] = assay: Competitive inhibition of bacterial NDM-1 expressed in Escherichia coli BL21 (DE3) transformed cells using imipenem as substrate after 5 mins by Lineweaver-Burk plot method
Bacteria [7] = assay: Uncompetitive inhibition of bacterial NDM-1 expressed in Escherichia coli BL21 (DE3) transformed cells using imipenem as substrate after 5 mins by Lineweaver-Burk plot method
Bacteria [8] = assay: Inhibition of bacterial NDM1 expressed in Escherichia coli DH5R transformed cells at 500 uM using imipenem as substrate by UV spectrometry
[9] = Inhibition of bacterial ImiS expressed in Escherichia coli BL21 (DE3) transformed cells using imipenem as substrate by UV spectrometry; design: species or system Bacteria
Bacteria [10] = assay: Uncompetitive inhibition of bacterial ImiS expressed in Escherichia coli BL21 (DE3) transformed cells using imipenem as substrate after 5 mins by Lineweaver-Burk plot method
Bacteria [11] = assay: Competitive inhibition of bacterial ImiS expressed in Escherichia coli BL21 (DE3) transformed cells using imipenem as substrate after 5 mins by Lineweaver-Burk plot method

Structure (SMILES)	MIC (Bacteria [1]) [µg/mL]	MIC (Bacteria [2]) [µg/mL]	Activity (Escherichia coli)	inhibition (Bacteria [3])	IC50 [4] [nM]	inhibition (Bacteria [5])	Kic (Bacteria [6]) [nM]	Kiuc (Bacteria [7]) [nM]	inhibition (Bacteria [8])	IC50 [9] [nM]	Kiuc (Bacteria [10]) [nM]	Kic (Bacteria [11]) [nM]
Nn1c(Cc2ccccc2)nnc1SCC(=O)Nc1nc2ccc([N+](=O)[O-])cc2[nH]1	4	1	inactive	inactive	730	inactive						
Nc1ccccc1-c1nnc(SCC(=O)Nc2nc3ccc([N+](=O)[O-])cc3[nH]2)[nH]1	4	1	inactive	inactive	170	inactive	550	310				
Nn1c(Cc2ccccc2)nnc1SCC(=O)Nc1nc2ccccc2o1	16	0.5	inactive			inactive			inactive	29000		
O=C(CSc1nnc(Cc2ccccc2)o1)Nc1nc2ccccc2[nH]1	16	0.25	inactive			inactive			inactive	3000		
Nn1c(Cc2ccccc2)nnc1SCC(=O)Nc1nc2ccccc2[nH]1	16	0.5	inactive			inactive			inactive	270		
Nc1ccccc1-c1nnc(SCC(=O)Nc2nc3ccccc3[nH]2)[nH]1	16	0.5	inactive			inactive			inactive	940		
O=C(CSc1nnc(-c2ccccc2O)s1)Nc1nc2ccccc2o1	16	0.5	inactive			inactive			inactive	196000		
Nc1ccccc1-c1nnc(SCC(=O)Nc2nc3ccc([N+](=O)[O-])cc3[nH]2)s1	8	2	inactive	inactive	2500	inactive						
O=C(CSc1nnc(-c2ccccc2O)o1)Nc1nc2ccc([N+](=O)[O-])cc2[nH]1	8	1	inactive	inactive	1300	inactive						
O=C(CSc1nnc(Cc2ccccc2)o1)Nc1nc2ccc([N+](=O)[O-])cc2[nH]1	4	1	inactive	inactive	500	inactive						
Nn1c(Cc2cccs2)nnc1SCC(=O)Nc1nc2ccccc2[nH]1	16	0.25	inactive			inactive			inactive	77	80	110
O=C(CSc1nnc(CCc2nnc(SCC(=O)Nc3nc4ccccc4[nH]3)s2)s1)Nc1nc2ccccc2[nH]1	16	0.25	inactive			inactive			inactive	390		
O=C(CSc1nnc(-c2ccccc2O)[nH]1)Nc1nc2ccc([N+](=O)[O-])cc2[nH]1	8	1	inactive	inactive	5900	inactive						
Nc1ccccc1-c1nnc(SCC(=O)Nc2nc3ccccc3[nH]2)n1N	16	0.25	inactive			inactive			inactive	15	11	22
O=C(CSc1nnc(Cc2ccccc2)s1)Nc1nc2ccccc2[nH]1	16	0.5	inactive			inactive			inactive	18000		
O=C(CSc1nnc(Cc2ccccc2)s1)Nc1nc2ccccc2o1	16	0.5	inactive			inactive			inactive	259000		
O=C(CSc1nnc(-c2ccccc2O)o1)Nc1nc2ccccc2[nH]1	16	0.5	inactive			inactive			inactive	630		
O=C(CSc1nnc(-c2ccccc2O)s1)Nc1nc2ccccc2[nH]1	16	0.5	inactive			inactive			inactive	330		
O=C(CSc1nnc(Cc2ccccc2)o1)Nc1nc2ccccc2o1	32	0.5	inactive			inactive			inactive	384000		
Nn1c(Cc2cccs2)nnc1SCC(=O)Nc1nc2ccccc2o1	16	0.5	inactive			inactive			inactive	53000		
O=C(CSc1nnc(-c2cccc([N+](=O)[O-])c2)[nH]1)Nc1nc2ccccc2o1	16	0.25	inactive			inactive			inactive	378000		
O=C(CSc1nnc(-c2ccccc2O)s1)Nc1nc2ccc([N+](=O)[O-])cc2[nH]1	8	1	inactive	inactive	6400	inactive						
O=C(CSc1nnc(-c2cccc([N+](=O)[O-])c2)s1)Nc1nc2ccccc2o1	16	0.5	inactive			inactive			inactive	133000		
O=C(CSc1nnc(-c2cccc([N+](=O)[O-])c2)s1)Nc1nc2ccc([N+](=O)[O-])cc2[nH]1	8	1	inactive	inactive	5100	inactive						
Nc1ccccc1-c1nnc(SCC(=O)Nc2nc3ccccc3[nH]2)s1	32	0.5	inactive			inactive			inactive	1200		
O=C(CSc1nnc(-c2cccc([N+](=O)[O-])c2)s1)Nc1nc2ccccc2[nH]1	16	0.5	inactive			inactive			inactive	1800		
Nc1ccccc1-c1nnc(SCC(=O)Nc2nc3ccc([N+](=O)[O-])cc3[nH]2)n1N	8	1	inactive	inactive	1100	inactive						
Nc1ccccc1-c1nnc(SCC(=O)Nc2nc3ccccc3[nH]2)o1	16	0.25	inactive			inactive			inactive	1700		
